Test results taken from the supplement of paper PMC10307832.

Tests used:
Test in all cases: relative viability (nuclei count vs DMSO), 5 days (fraction); higher = more cells survive
SGI-1776 + Alpelisib = compound: CN1CCC(CNc2ccc3ncc(-c4cccc(OC(F)(F)F)c4)n3n2)CC1 [SGI-1776] + Cc1nc(NC(=O)N2CCC[C@H]2C(N)=O)sc1-c1ccnc(C(C)(C)C(F)(F)F)c1 [Alpelisib] (partner 2 µM)
Summary of the method: (§1)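 Lung cancer cell lines, seeded in 1536-well plates, were treated the following day by pin tool with a single drug or with five library-drug doses (not always all listed) in √10 steps on top of a fixed anchor-drug dose. Cells were fixed and nuclei stained in one step after 5 days, and nuclei were counted. Relative viability is the nuclei count for treated wells divided by that for vehicle wells, reported as medians of duplicate plates.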

[1] = compound: C1COCCN1C2=NC(=NC3=C2OC4=C3C=CC=N4)C5=CC(=CC=C5)NC(=O)C6=CN=C(C=C6)N + COc1cc2c(Oc3ccc(NC(=O)C4(C(=O)Nc5ccc(F)cc5)CC4)cc3F)ccnc2cc1OCCCN1CCOCC1 [Foretinib] (partner 0.25 µM)
Summary of the method: as §1

SGI-1776 + Navitoclax = compound: CN1CCC(CNc2ccc3ncc(-c4cccc(OC(F)(F)F)c4)n3n2)CC1 [SGI-1776] + CC1(C)CCC(c2ccc(Cl)cc2)=C(CN2CCN(c3ccc(C(=O)NS(=O)(=O)c4ccc(N[C@H](CCN5CCOCC5)CSc5ccccc5)c(S(=O)(=O)C(F)(F)F)c4)cc3)CC2)C1 [Navitoclax] (partner 0.5 µM)
Summary of the method: as §1

Entinostat + Trametinib = compound: Nc1ccccc1NC(=O)c1ccc(CNC(=O)OCc2cccnc2)cc1 [Entinostat] + CC(=O)Nc1cccc(-n2c(=O)n(C3CC3)c(=O)c3c(Nc4ccc(I)cc4F)n(C)c(=O)c(C)c32)c1 [Trametinib] (partner 0.02 µM)
Summary of the method: as §1

| Cell Line | relative viability (SGI-1776 + Alpelisib; first compound 0.08 µM) | relative viability (SGI-1776 + Alpelisib; first compound 0.8 µM) | relative viability (SGI-1776 + Alpelisib; first compound 2.53 µM) | relative viability (SGI-1776 + Alpelisib; first compound 8 µM) | relative viability ([1]; first compound 0.02 µM) | relative viability ([1]; first compound 0.06325 µM) | relative viability ([1]; first compound 0.2 µM) | relative viability ([1]; first compound 0.6325 µM) | relative viability ([1]; first compound 2 µM) | relative viability (SGI-1776 + Navitoclax; first compound 0.08 µM) | relative viability (SGI-1776 + Navitoclax; first compound 0.8 µM) | relative viability (SGI-1776 + Navitoclax; first compound 2.53 µM) | relative viability (SGI-1776 + Navitoclax; first compound 8 µM) | relative viability (Entinostat + Trametinib; first compound 0.02 µM) | relative viability (Entinostat + Trametinib; first compound 0.06325 µM) | relative viability (Entinostat + Trametinib; first compound 0.2 µM) | relative viability (Entinostat + Trametinib; first compound 0.6325 µM) | relative viability (Entinostat + Trametinib; first compound 2 µM) |
| --- | --- | --- | --- | --- | --- | --- | --- | --- | --- | --- | --- | --- | --- | --- | --- | --- | --- | --- |
| LXF-289 | 1 | 1.06 | 1.03 | 1 | 0.994 | 1 | 0.985 | 0.952 | 0.747 | 0.966 | 0.989 | 0.963 | 0.983 | 0.642 | 0.653 | 0.652 | 0.408 | 0.453 |
| NCI-H23 | 0.722 | 0.725 | 0.616 | 0.57 | 0.85 | – | 0.943 | 0.815 | 0.493 | 0.988 | 0.728 | 0.837 | 0.729 | 0.411 | 0.475 | 0.483 | 0.394 | 0.215 |
| NCI-H322M | 0.883 | 0.934 | 0.928 | 0.756 | 0.919 | 0.918 | 0.935 | 0.849 | 0.686 | 1.28 | 1.25 | 1.15 | 1.12 | 0.546 | 0.534 | 0.542 | 0.525 | 0.502 |
| NCI-H441 | 0.751 | 0.478 | 0.697 | 0.588 | 1.13 | 0.918 | 0.786 | 0.84 | 0.493 | 0.775 | 0.732 | 0.629 | 0.374 | 0.498 | 0.687 | 0.568 | 0.227 | 0.147 |
| NCI-H460 | 0.488 | 0.481 | 0.433 | 0.121 | 1.11 | 1.23 | 1.12 | 1.08 | 0.545 | 1.12 | 1.13 | 1.07 | 1.19 | 0.226 | 0.0831 | 0.0851 | 0.0455 | 0.0239 |
| NCI-H520 | 0.928 | 0.94 | 0.914 | 0.759 | 0.839 | 0.742 | 0.669 | 0.798 | 0.469 | 1.14 | 1.25 | 1.13 | 1.08 | 0.698 | 0.906 | 0.604 | 0.698 | 0.355 |
| NCI-H596 | 0.529 | 0.439 | 0.357 | 0.349 | 1.13 | 0.813 | 0.893 | 0.709 | 0.616 | 0.982 | 1.05 | 0.995 | 0.939 | 0.748 | 0.638 | 0.807 | 0.649 | 0.459 |
| NCI-H647 | 1.31 | 1.15 | 1.1 | 0.558 | 1.17 | 1.16 | 1.13 | 1.14 | 0.667 | 1.1 | 0.993 | 1.18 | 0.715 | 0.48 | 0.398 | 0.525 | 0.322 | 0.133 |
| NCI-H727 | 0.75 | 0.532 | 0.655 | 0.538 | 0.945 | 0.807 | 0.82 | 0.865 | 0.676 | 0.426 | 0.446 | 0.346 | 0.247 | 0.368 | 0.365 | 0.347 | 0.331 | 0.273 |
| NCI-H838 | 1.1 | 1.01 | 0.95 | 0.874 | 1.06 | 0.987 | 0.952 | 0.884 | 0.487 | 1.12 | 1.22 | 1.14 | 0.869 | 0.531 | 0.548 | 0.626 | 0.395 | 0.167 |
| NCI-H1355 | 0.835 | 0.97 | 0.847 | 0.66 | 0.995 | 1.12 | 1.1 | 0.927 | 0.642 | 0.952 | 0.967 | 0.883 | 0.798 | 0.443 | 0.402 | 0.337 | 0.344 | 0.243 |
| NCI-H1395 | 1.09 | 1.02 | 0.996 | 0.631 | 0.919 | 0.909 | 0.924 | 0.984 | 0.894 | 1.08 | 1.41 | 1.13 | 0.836 | 1.08 | 1.09 | 0.977 | 0.79 | 0.699 |
| NCI-H1437 | 0.867 | 0.961 | 0.99 | 0.634 | 1.31 | 1.29 | 1.2 | 1.27 | 0.856 | 1.13 | 1.07 | 1.11 | 1.04 | 0.406 | 0.31 | 0.276 | 0.276 | 0.221 |
| NCI-H1651 | 0.97 | 0.957 | 0.834 | 0.752 | 0.784 | 0.786 | 0.723 | 0.821 | 0.551 | 1.19 | 1.04 | 0.9 | 0.825 | 0.931 | 0.844 | 0.844 | 0.745 | 0.606 |
| NCI-H1666 | 1.06 | 1 | 1.01 | 0.49 | 1 | 0.89 | 0.774 | 0.85 | 0.672 | 0.907 | 0.772 | 0.836 | 0.705 | 0.817 | 0.883 | 0.763 | 0.611 | 0.572 |
| NCI-H1734 | 0.69 | 0.798 | 0.733 | 0.559 | 0.825 | 0.948 | 0.695 | 0.804 | 0.563 | 0.829 | 0.851 | 0.884 | 0.759 | 0.707 | 0.711 | 0.759 | 0.6 | 0.477 |
| NCI-H1755 | 0.996 | 0.944 | 0.885 | 0.795 | 0.902 | 0.94 | 0.871 | 0.805 | 0.622 | 1.02 | 0.976 | 0.934 | 0.856 | 0.721 | 0.751 | 0.605 | 0.565 | 0.44 |
| NCI-H1793 | 0.807 | 0.808 | 0.974 | 0.602 | 0.564 | 0.843 | 0.59 | 0.548 | 0.391 | 0.358 | 0.52 | 0.482 | 0.31 | 0.465 | 0.387 | 0.31 | 0.304 | 0.292 |
| NCI-H1915 | 1.09 | 1.12 | 1.11 | 1.03 | 1.11 | 1.18 | 1.11 | 1.13 | 0.856 | 0.795 | 0.802 | 0.793 | 0.781 | 0.314 | 0.311 | 0.289 | 0.246 | 0.229 |
| NCI-H1944 | 0.877 | 0.752 | 0.807 | 0.649 | 0.898 | 0.916 | 0.942 | 0.772 | 0.731 | 1.03 | 1.09 | 1.07 | 1.07 | 0.387 | 0.43 | 0.333 | 0.265 | 0.232 |
| NCI-H1975 | 0.674 | 0.598 | 0.501 | 0.322 | 1.01 | 0.857 | 0.896 | 0.886 | 0.498 | 1.21 | 1.06 | 0.883 | 0.817 | 0.373 | 0.32 | 0.313 | 0.223 | 0.169 |
| NCI-H1993 | 0.631 | 0.684 | 0.687 | 0.594 | 0.879 | 0.837 | 0.732 | 0.723 | 0.665 | 0.95 | 0.945 | 0.832 | 0.56 | 0.484 | 0.572 | 0.504 | 0.475 | 0.492 |
| NCI-H2009 | 1.21 | 1.17 | 1.25 | 1.09 | 1.28 | 1.24 | 1.19 | 1.11 | 0.932 | 1.15 | 1.18 | 1.19 | 1.08 | 0.312 | 0.354 | 0.325 | 0.294 | 0.238 |
| NCI-H2023 | 0.595 | 0.546 | 0.546 | 0.414 | 0.889 | 1.07 | 0.765 | 0.759 | 0.511 | 1.04 | 1.04 | 0.998 | 0.979 | 0.467 | 0.473 | 0.226 | 0.127 | 0.0998 |
| NCI-H2085 | 1.01 | 0.96 | 0.978 | 0.844 | 0.998 | 0.998 | 0.775 | 0.938 | 0.604 | 1.18 | 1.07 | 1.2 | 0.945 | 0.552 | 0.765 | 0.508 | 0.499 | 0.408 |
| NCI-H2087 | 1.1 | 1.06 | 1.18 | 0.997 | 1.03 | 1.28 | 1.05 | 0.962 | 0.741 | 0.963 | 1.04 | 1.04 | 0.861 | 0.189 | 0.193 | 0.169 | 0.136 | 0.141 |
| NCI-H2126 | 0.735 | 0.733 | 0.751 | 0.676 | 1.19 | 1.24 | 1.1 | 0.977 | 1.04 | 0.809 | 0.877 | 0.846 | 0.743 | 0.592 | 0.506 | 0.525 | 0.347 | 0.312 |
| NCI-H2170 | 0.858 | 0.835 | 0.697 | 0.635 | 0.953 | 0.843 | 1.05 | 1.07 | 0.68 | 0.561 | 0.678 | 0.581 | 0.56 | 0.972 | 0.888 | 0.752 | 0.579 | 0.402 |
| NCI-H2228 | 0.776 | 0.636 | 0.727 | 0.239 | 0.911 | 0.855 | 1 | 0.836 | 0.446 | 0.843 | 0.817 | 0.658 | 0.51 | 0.466 | 0.587 | 0.524 | 0.224 | 0.183 |
